According to patent US7494821B2, “Fluorescein based sensors for tracking nitric oxide in live cells” (Massachusetts Institute of Technology, priority 2005, dated 2009):
One block for each molecule: values may come before it.

Key:
[1] = test system: SK-N-SH human neuroblastoma cells; assay: Detection of NO produced by cNOS in SK-N-SH cells (fluorescence imaging); type: cell-based; settings: estradiol-stimulated neuroblastoma cells
Experimental: FIG. 7 illustrates Cu(FL5) detection of NO produced by cNOS. (a) NO detection in SK-N-SH cells by Cu(FL5). Left to right: 25 min incubation of Cu(FL5) (1 μM) and 5, 10, 15, 25 min after co-treatment of Cu(FL5) (1 μM) and 17β-estradiol (100 nM). Images were taken with a Nikon Eclipse TS100 microscope after removing the DMEM media and washing the cells with PBS. Top: fluorescence images; bottom: phase contrast images. (b) Fluorescence intensity (F(t)/FCu(FL5)) from a was plotted against incubation time. (c) NO production with or without of L-NNA. Right: NO detection in cells after 10 min co-incubation of Cu(FL5) (1 μM) and 17β-estradiol (100 nM). Left: NO detection in cells pre-treated with L-NNA for 1 h before addition of Cu(FL5) and 17β-estradiol.
We investigated the ability of Cu(FL5) to detect NO produced in SK-N-SH human neuroblastoma cells under physiological conditions, since constitutive NO synthase (“cNOS”) in this cell line can be activated by estrogen to produce NO. Estrogen administration leads to an increase in the cytosolic Ca(II) concentration that alters the structure of calmodulin, which in turn activates cNOS. The NO-dependent fluorescence response, monitored after simultaneous administration of 17β-estradiol (100 nM) and Cu(FL5) (1 μM) to the cells, was completed within 5 min with a 4.0±0.6-fold increase in fluorescence (FIGS. 5a and b). […] As another control, HeLa cells were co-treated with 17β-estradiol (100 nM) and Cu(FL5) (1 μM).
Raw 264.7, SK-N-SH, and HeLa cells were purchased from the American Type Culture Collection (ATCC). All three cell lines were maintained in Dulbecco's modified Eagles' media (DMEM) (GibcoBRL) containing 10% (v/v) heat-inactivated fetal bovine serum (FBS) (HyClone), 1 mM sodium pyruvate (Sigma), 100 units/ml penicillin, 100 μg/ml streptomycin (Invitrogen), and 0.1 mM nonessential amino acid solution for minimal essential medium (Sigma). All cells were grown at 37° C. in a humidified atmosphere of 10% CO2. A nitrite assay was performed with Griess reagents (Promega) on Raw 264.7 cells grown in DMEM free of phenol red. Calcium sensor fluo-4 AM was purchased from Invitrogen. MTT [3-(4,5-dimethylthiazol-2-yl)-2,5-diphenyltetrazolium bromide] (Sigma-Aldrich) assay was described in Supplementary information. The expression of iNOS in Raw 264.7 cells was analyzed by Western blot on the extracts of cells stimulated by LPS and INF-γ. The protein was silenced by short hairpin RNA-induced RNAi and the resulting cell lines were used in fluorescence imaging by Cu(FL5).

[2] = Stability of nitrosated ligand at pH 7.0; type: physicochemical
Excerpt: High resolution MS of FL5-^14NO and FL-^15NO were also obtained, showing m/z=600.0729 for FL5-^14NO and 601.0736 for FL5-^15NO, corresponding to [FL5+NO−H+Cl]^− (calcd. m/z 600.0729 and 601.0700).

[3] = Quantum yield; type: physicochemical
Excerpt: Quantum yield may be obtained by comparison of the integrated area of the corrected emission spectrum of the sample with that of a reference solution. A preferred reference solution is a solution of fluorescein in 0.1 N NaOH, quantum efficiency 0.95. The concentration of the reference is adjusted to match the absorbance of the test sample. The quantum yields may be calculated using the following equation.
Upon addition of excess NO, a 499 nm peak in the UV-vis spectrum of Cu(FL5) in pH 7.0 buffered solution red-shifted back to the λmax characteristic of FL5 or the synthetic FL5−NO compound (504 nm), which differs from the band formed in the reaction of FL5 with 1 equivalent of Cu(I) added as [Cu(CH3CN)4](BF4) (506 nm). […] In addition, the spectrum of the NO reaction solution closely resembled that of the monoanionic fluorescein formed by lowering the pH from 7.0 to 5.0. […] These values are in the range previously reported for N-nitrosamines. The presence of two separate chemical shifts might arise from different isomers in solution, the Δδ of 2.29 being similar to that of previously reported of N-nitrosamines. […] Lastly, FL5−NO is brighter than FL5 or Cu(FL5), the respective quantum yields being ΦFL-NO=0.58±0.02 and ΦFL=0.077±0.002.

[4] = Fluorescence response to NO in buffered aqueous solution
Experimental: FIG. 5 depicts the fluorescence response of Cu(FL5) to NO. Fluorescence emission spectra (λex=503 nm) of a deoxygenated 1 μM solution of Cu(FL5) in buffered solution (50 mM PIPES, pH 7.0, 100 mM KCl) before (dashed line), immediately, 1, 2 and 5 min after (solid lines) admission of 1300 equiv of NO (g) at 37° C.
The fluorescence of a 1 μM FL5 solution was diminished by 18±3% upon introduction of an equimolar quantity of CuCl2 at 37° C. Addition of excess NO to a buffered aqueous Cu(FL5) solution led to an immediate 11.2±1.5-fold increase in fluorescence (FIG. 5). […] The lower detection limit for NO is 5 nM.
A commercially available NO probe, DAF-2 (o-diaminofluorescein), was used for comparison with Cu(FL5). The fluorescence of DAF-2 is unchanged in the presence of NO and the absence of O2 over a period of 1 h.
As depicted in FIG. 4, NO detection by Cu(FL5) occurs, formally, by nitric oxide-induced reduction of Cu(II) to Cu(I), forming NO^+, which nitrosates the ligand with concomitant dissociation from copper and fluorescence turn-on. The mechanism of turn-on emission of Cu(FL5) by NO was investigated by EPR, UV-vis, NMR and fluorescence spectroscopy and by liquid chromatography-mass spectrometry (LC-MS, low resolution MS).

Molecule: CC(=O)Oc1ccc2c(c1)Oc1cc(OC(C)=O)ccc1C21OC(=O)c2cc(N)c(N)cc21 [DAF-2 DA, o-diaminofluorescein diacetate, reference compound]
fluorescence increase of treated cells 30 min after activation of cNOS [1]: only a slight fluorescence increase

stability [2]: stable for several days
quantum yield Φ [3]: 0.58±0.02
Molecule: Cc1ccc2cccc(N(Cc3c(O)ccc4c(-c5ccccc5C(=O)O)c5cc(Cl)c(=O)cc-5oc34)N=O)c2n1 [FL5−NO, 2-{2-chloro-6-hydroxy-5-[((2-methylquinolin-8-yl)(nitroso)amino)-methyl]-3-oxo-3H-xanthen-9-yl}-benzoic acid]

Molecule: o-diaminofluorescein [DAF-2, reference compound]
fluorescence in the presence of NO when O2 is present [4]: turn-on fluorescence
fluorescence in the presence of NO and the absence of O2 ([4]; over a period of 1 h): unchanged
